The source of these data is EP0080271A1, “Indomethacin phenyl ester derivatives, their use, and compositions containing them” (priority 1981, dated 1983).

Data set [1] deals with rats. The experiment in a line: number of intestinal ulcers after oral administration for 1 week. The format is in vivo. As to conditions: oral for 1 week, dose 15 µM. As to the method:
(§1) Secondly, in order to assess ulceration activity, various compounds (listed in Table 2) were administered orally to a group of rats. The animals were sacrificed 5 hours after administration, and the ulcer index was determined. Compounds were also administered orally to a group of rats for 1 week, and the number of intestinal ulcers was determined. The same compounds were administered orally to a group of rats, the ulcer index being determined by observing the stomach 3 hours after administration.

For data set [2], the system named is rats. Kind of data set: ulcer index, stomach observed 3 hours after oral administration. As to conditions: stomach 3 hours after administration, dose 0.056 mM. The data set is classed as in vivo. As to the method: as §1
Data set [3] has as its system rats. The experiment in a line: intestinal ulcers and survival after oral administration for 5 days. The format is in vivo. As to conditions: group of 12 rats, oral for 5 days, daily dose 28 µM; for ulceration (%): percentage of surviving animals with ulcers. As for the experimental part: Each compound listed in Table 5 was administered orally to a group of 12 rats for 5 days, and the number of intestinal ulcers was determined. The degree of ulceration was calculated as a percentage of number of […] surviving animals with respect to the number of surviving animals.

Data set [4] relates to rats. The experiment in a line: ulceration activity: ulcer index 5 hours after oral administration. The format is in vivo. As to conditions: sacrificed 5 hours after administration. As for the experimental part: as §1
Data set [5] has as its system edema induced by carrageenin in rat. The experiment in a line: inhibition of edema induced by carrageenin in rat (hind paw volume). The format is in vivo. The note with it: oral 1 hour before carrageenin injection; for inhibition (%): 3 hours after injection; for edema (%): hind paw volume 3 hours after injection. As for the experimental part:
Firstly, in order to assess anti-inflammatory activity, the inhibition of edema induced by carrageenin in rat was studied. Various compounds (listed in Table 1) were administered orally to a group of rats just 1 hour before a carrageenin injection, and the hind paw volume was measured 3 hours after injection.

Data set [6] relates to rats. The format is in vivo. The note with it: group of 10 rats, oral, stomach 24 hours after administration, dose 0.060 mM. As for the experimental part:
Each compound listed in Table 6 was administered orally to a group of 10 rats and the ulcer index was determined by observing the stomach 24 hours after administration.

The test system of another data set is serum esterase. As to conditions: reported in Ceskoslovenska Farmacie 26 (1977) 6277; cited from earlier work.
Data set [7] is described as follows: LD50 by oral administration in mice. As to conditions: mouse, in vivo, mice of the stock ddy. As for the experimental part: LD50 of this compound, determined by means of oral administration in mice of the stock ddy, was 200 mg/kg.
Setting [8] is: versus indomethacin plus salicyl salicylate.

Where two headings read alike, the source gives them in different places.

`COc1ccc2c(c1)c(CC(=O)Oc1ccccc1C(=O)Oc1ccccc1C(=O)O)c(C)n2C(=O)c1ccc(Cl)cc1` [Example 5, 2-(2-Hydroxycarbonylphenyl)oxycarbonylphenyll-(p-chlorobenzoyl)-5-methoxy-2-methylindole-3-acetate] displayed a number of ulcers in the data set with rats [1] of 0.5 ± 2.0. Besides, the “inhibition (%)” value worked out at 98.4% in the data set with rats [1] (setting [8]), 86.0% in the data set on rats [2] (setting [8]), 42.7% in data set [5] (dose 0.015 mM) and 48.7% in data set [5] (dose 0.030 mM). In the data set with rats [2], this compound showed a Ulcer index of 3.7 ± 1.3. For the same compound, the “number of intestinal ulcers” value in the data set on rats [3] is reported as 2.4 ± 0.6. Also, the “ulceration (%)” value with rats [3] is recorded as 75%. Further, in the data set on rats [4] (dose 0.030 mM), the “ulcer index (mm)” value turned out to be 0.6 ± 0.3 mm. The results for the “edema (%)” value in data set [5] (dose 0.015 mM) and in data set [5] (dose 0.030 mM) were 46.4 ± 4.8% and 41.4 ± 5.3%, respectively.
`COc1ccc2c(c1)c(CC(=O)Oc1ccccc1C(=O)OCc1ccccc1)c(C)n2C(=O)c1ccc(Cl)cc1` [Example 1, 2-Benzyloxycarbonylphenyll-(p-chlorobenzoyl)-5-methoxy-2-methylindole-3-acetate]: the “ulcer index (mm)” value with rats [4] (dose 0.030 mM) was determined as 0.1 ± 0.1 mm.
Regarding `COc1ccc2c(c1)c(CC(=O)OCC(=O)O)c(C)n2C(=O)c1ccc(Cl)cc1` [Acemethacin, reference compound], in the data set on rats [3], the “number of intestinal ulcers” value is 11.0 and the “ulceration (%)” value was 100%.
As to `COc1ccc2c(c1)c(CC(=O)Oc1ccccc1C(=O)O)c(C)n2C(=O)c1ccc(Cl)cc1` [Indomethacin salicylic ester, 2-hydroxycarbonylphenyll-(p-chlorobenzoyl)-5-methoxy-2-methylindole-3-acetate], the “ulcer index (mm)” value in the data set with rats [6] turned out to be 7.1 ± 1.6 mm. In addition, in the data set on rats [6] (versus indomethacin), the “inhibition (%)” value was 73.2%. Also, in the data set with rats [3], the “number of intestinal ulcers” value was 5.0 ± 0.4 and the “ulceration (%)” value is on record as 100%. Further, in the data set on serum esterase, the “hydrolysis by serum esterase” value is on record as “hydrolysis by serum esterase”. For the same compound, in data set [5] (dose 0.015 mM), the “inhibition (%)” value is listed as 49.4% and the “edema (%)” value is reported as 41.0 ± 3.5%.
Usually LD50 stands for the dose at which mortality reaches 50%. A low value points to a more toxic substance. In data set [7], `CCOC(=O)c1ccccc1OC(=O)Cc1c(C)n(C(=O)c2ccc(Cl)cc2)c2ccc(OC)cc12` [Example 2, 2-Ethoxycarbonylphenyl 1-(p-chlorobenzoyl)-5-methoxy-2-methylindole-3-acetate] registered an LD50 of 200 mg/kg. The “ulcer index (mm)” value in the data set with rats [4] (dose 0.030 mM) was determined as 0.2 ± 0.1 mm. Also, in data set [5] (dose 0.015 mM), the “inhibition (%)” value turned out to be 31.8% and the “edema (%)” value is 53.3 ± 8.7%. In data set [5] (dose 0.030 mM), the “inhibition (%)” value worked out at 34.7% and the “edema (%)” value is listed as 52.9 ± 3.6%.
Consider `COc1ccc2c(c1)c(CC(=O)Oc1ccccc1C(=O)OC(C)(C)C)c(C)n2C(=O)c1ccc(Cl)cc1` [Example 3, 2-t-Butoxycarbonylphenyl 1-(p-chlorobenzoyl)-5-methoxy-2-methlindole-3-acetate], for which, in the data set with rats [4] (dose 0.030 mM), the “ulcer index (mm)” value was determined as 0.2 ± 0.1 mm. In addition, in data set [5] (dose 0.015 mM), the “inhibition (%)” value is on record as 35.8% and the “edema (%)” value came out at 52.0 ± 7.5%. For the same compound, in data set [5] (dose 0.030 mM), the “inhibition (%)” value was 34.7% and the “edema (%)” value worked out at 52.9 ± 3.6%.
`COc1ccc2c(c1)c(CC(=O)Oc1ccccc1C(=O)Oc1ccccc1C(=O)OCc1ccccc1)c(C)n2C(=O)c1ccc(Cl)cc1` [Example 4, 2-(2-Benzyloxycarbonylphenyl)oxycarbonylphenyl 1-(p-chlorobenzoyl)-5-methoxy-2-methylindole-3-acetate]: the “ulcer index (mm)” value with rats [4] (dose 0.030 mM) is on record as 0.4 ± 0.3 mm.
`COc1ccc2c(c1)c(CC(=O)O)c(C)n2C(=O)c1ccc(Cl)cc1` [Indomethacin]: the entries for the “ulcer index (mm)” value in the data set on rats [6], in the data set with rats [4] (dose 0.030 mM) and in the data set on rats [4] (dose 21.5 mg/kg (0.060 mM)) were 26.5 ± 6.2 mm, 5.9 ± 2.5 mm and 57.9 ± 6.6 mm, respectively. In addition, in the data set with rats [3], the “number of survival animals” value is on record as 0. The “inhibition (%)” value in data set [5] (dose 0.015 mM) was 32.2%; in data set [5] (dose 0.030 mM) it was 53.5%. Further, the “edema (%)” value in data set [5] (dose 0.015 mM) is recorded as 54.9 ± 6.5%; in data set [5] (dose 0.030 mM), 37.7 ± 7.2%.
